Source: paper PMC7932521, “2-aminobenzimidazoles for leishmaniasis: From initial hit discovery to in vivo profiling” (PLoS Neglected Tropical Diseases, 2021)

System: Leishmania infantum MHOM/MA(BE)/67/ITMAP263 amastigotes
Experiment: L. infantum intracellular amastigote assay in PMM
Format: cell-based
Details: CC50 / L. infantum IC50
Experimental: (§1) Leishmania infantum MHOM/MA(BE)/67/ITMAP263 amastigotes were collected from the spleen of infected donor Golden hamsters. Primary peritoneal mouse macrophages (PMM) were used as host cells for in vitro assays. PMM were collected from Swiss mice after 2 days of peritoneal stimulation with a 2% suspension of potato starch and maintained in RPMI-1640 medium supplemented with 200 mM L-glutamine, antibiotics and 5% FCS at 37°C and 5% CO2. Promastigotes of L. infantum chagasi (luciferase) (MHOM/BR/2005/NLC) obtained as described in Reimão et al.,[27] were grown in M199 medium supplemented with 10% FCS, 0.25% hemin, 32 μg/ml hygromycin and 2% sterile human urine at 25°C and 5% CO2.
(§2) Stock solutions of the compounds at 20 mM were prepared in 100% DMSO. Next, the compounds were serially pre-diluted in DMSO followed by a further dilution in demineralized water to assure a final in-test DMSO concentration below 1%. The compounds were tested at 4-fold dilutions starting at 64 μM.
For the antileishmania in vitro assays, 3×10^4 PMM/well were seeded in 96-well plates. After 24h, 5×10^5 amastigotes/well were added and incubated for 2h at 37°C. Next, the compounds in 4-fold serial dilutions were added and the plates were further incubated for 5 days (37°C, 5% CO2). Parasite burdens were assessed using an inverted microscope after Giemsa staining. The results were expressed as percent reduction in parasite burdens compared to negative control wells (100% growth) and IC50 values were determined. Values represent the geometric mean of at least two independent experiments. Miltefosine was used as the positive control in all plates.

Structure (SMILES)	SI: selectivity index (CC50 / IC50)
Cn1ccc(C(=O)Nc2nc3ccc(C#N)cc3n2CC(F)(F)F)n1 [Compound 35, O=C(c1nn(C)cc1)Nc2nc(ccc(C#N)c3)c3n2CC(F)(F)F]	1
Cn1nccc1C(=O)Nc1nc2cccnc2n1CC(C)(C)C [Compound 54, CC(Cn1c(NC(=O)c2n(C)ncc2)nc(c13)cccn3)(C)C]	4
CC(C)(C)Cn1c(NC(=O)c2ccccn2)nc2ccc(C#N)cc21 [Compound 40, CC(Cn1c(NC(=O)c2ccccn2)nc(c13)ccc(C#N)c3)(C)C]	1
CC(C)(C)Cn1c(NC(=O)c2cccnc2)nc2ccc(C#N)cc21 [Compound 41, O=C(Nc1n(CC(C)(C)C)c(c2n1)cc(C#N)cc2)c3cccnc3]	2

Same assay, conditions: Leishmania infantum, 120 h, intracellular amastigotes in PMM, 5 days; read-out: L. infantum IC50

Structure (SMILES)	IC50 [µM]
Cn1ccc(C(=O)Nc2nc3ccc(C#N)cc3n2CC(F)(F)F)n1 [Compound 35, O=C(c1nn(C)cc1)Nc2nc(ccc(C#N)c3)c3n2CC(F)(F)F]	26
Cn1nccc1C(=O)Nc1nc2cccnc2n1CC(C)(C)C [Compound 54, CC(Cn1c(NC(=O)c2n(C)ncc2)nc(c13)cccn3)(C)C]	7.8
CC(C)(C)Cn1c(NC(=O)c2ccccn2)nc2ccc(C#N)cc21 [Compound 40, CC(Cn1c(NC(=O)c2ccccn2)nc(c13)ccc(C#N)c3)(C)C]	15
CC(C)(C)Cn1c(NC(=O)c2cccnc2)nc2ccc(C#N)cc21 [Compound 41, O=C(Nc1n(CC(C)(C)C)c(c2n1)cc(C#N)cc2)c3cccnc3]	8.6

Same assay, conditions: Leishmania infantum, S1 Data; read-out: L. infantum IC50

Structure (SMILES)	IC50 [µM]
Cn1ccc(C(=O)Nc2nc3ccc(C#N)cc3n2CC(F)(F)F)n1 [Compound 35, O=C(c1nn(C)cc1)Nc2nc(ccc(C#N)c3)c3n2CC(F)(F)F]	25.7
Cn1nccc1C(=O)Nc1nc2cccnc2n1CC(C)(C)C [Compound 54, CC(Cn1c(NC(=O)c2n(C)ncc2)nc(c13)cccn3)(C)C]	7.75
CC(C)(C)Cn1c(NC(=O)c2ccccn2)nc2ccc(C#N)cc21 [Compound 40, CC(Cn1c(NC(=O)c2ccccn2)nc(c13)ccc(C#N)c3)(C)C]	14.9
CC(C)(C)Cn1c(NC(=O)c2cccnc2)nc2ccc(C#N)cc21 [Compound 41, O=C(Nc1n(CC(C)(C)C)c(c2n1)cc(C#N)cc2)c3cccnc3]	8.57

System: PMM (Primary Mouse Macrophages)
Experiment: Cytotoxicity on primary peritoneal mouse macrophages
Format: cell-based
Details: Mus musculus, Macrophage, read-out: PMM IC50
Experimental: as §1, §2

Structure (SMILES)	IC50 [µM]
Cn1ccc(C(=O)Nc2nc3ccc(C#N)cc3n2CC(F)(F)F)n1 [Compound 35, O=C(c1nn(C)cc1)Nc2nc(ccc(C#N)c3)c3n2CC(F)(F)F]	32
Cn1nccc1C(=O)Nc1nc2cccnc2n1CC(C)(C)C [Compound 54, CC(Cn1c(NC(=O)c2n(C)ncc2)nc(c13)cccn3)(C)C]	32
CC(C)(C)Cn1c(NC(=O)c2ccccn2)nc2ccc(C#N)cc21 [Compound 40, CC(Cn1c(NC(=O)c2ccccn2)nc(c13)ccc(C#N)c3)(C)C]	16
CC(C)(C)Cn1c(NC(=O)c2cccnc2)nc2ccc(C#N)cc21 [Compound 41, O=C(Nc1n(CC(C)(C)C)c(c2n1)cc(C#N)cc2)c3cccnc3]	16

System: not listed separately
Experiment: MRC-5 cytotoxicity
Format: cell-based
Details: human, MRC-5 cells; S1 Data

Structure (SMILES)	CC50 [µM]
Cn1ccc(C(=O)Nc2nc3ccc(C#N)cc3n2CC(F)(F)F)n1 [Compound 35, O=C(c1nn(C)cc1)Nc2nc(ccc(C#N)c3)c3n2CC(F)(F)F]	58.2
Cn1nccc1C(=O)Nc1nc2cccnc2n1CC(C)(C)C [Compound 54, CC(Cn1c(NC(=O)c2n(C)ncc2)nc(c13)cccn3)(C)C]	43.7
CC(C)(C)Cn1c(NC(=O)c2ccccn2)nc2ccc(C#N)cc21 [Compound 40, CC(Cn1c(NC(=O)c2ccccn2)nc(c13)ccc(C#N)c3)(C)C]	60.9
CC(C)(C)Cn1c(NC(=O)c2cccnc2)nc2ccc(C#N)cc21 [Compound 41, O=C(Nc1n(CC(C)(C)C)c(c2n1)cc(C#N)cc2)c3cccnc3]	> 64

System: not listed separately
Experiment: Experimental distribution coefficient (eLogD)
Format: physicochemical
Details: experimental, pH 7.4
Experimental: To determine the lipophilicity of the compounds, a methodology based on the retention time of molecules in reverse stationary phase (Ascentis RP-Amide HPLC column) was used. The chromatogram was obtained using LC-MS/MS. Test compounds were prepared at 1.0 μg/mL by adding the stock solution at (1:1) mobile phases A:B + internal standard at 200nM (A: 5% methanol in 10mM ammonium acetate pH 7.4, B: 100% methanol), DMSO concentration must be lower than 2%. […] The retention time (in minutes) of each of the eight standards was plotted against their LogD values. The resulting equation for the calibration curve (y = mx + b) was used to calculate the LogD values for the test compounds.

Structure (SMILES)	eLogD
Cn1ccc(C(=O)Nc2nc3ccc(C#N)cc3n2CC(F)(F)F)n1 [Compound 35, O=C(c1nn(C)cc1)Nc2nc(ccc(C#N)c3)c3n2CC(F)(F)F]	4.2

Same assay, conditions: reverse stationary phase HPLC column (Ascentis RP-Amide), pH 7.4; S1 Data

Structure (SMILES)	chromatographic logD
Cn1ccc(C(=O)Nc2nc3ccc(C#N)cc3n2CC(F)(F)F)n1 [Compound 35, O=C(c1nn(C)cc1)Nc2nc(ccc(C#N)c3)c3n2CC(F)(F)F]	4.15
Cn1nccc1C(=O)Nc1nc2cccnc2n1CC(C)(C)C [Compound 54, CC(Cn1c(NC(=O)c2n(C)ncc2)nc(c13)cccn3)(C)C]	4.04
CC(C)(C)Cn1c(NC(=O)c2ccccn2)nc2ccc(C#N)cc21 [Compound 40, CC(Cn1c(NC(=O)c2ccccn2)nc(c13)ccc(C#N)c3)(C)C]	3.93
CC(C)(C)Cn1c(NC(=O)c2cccnc2)nc2ccc(C#N)cc21 [Compound 41, O=C(Nc1n(CC(C)(C)C)c(c2n1)cc(C#N)cc2)c3cccnc3]	3.9

Same assay, conditions: reverse-phase HPLC retention (Ascentis RP-Amide column); experimental, pH 7.4

Structure (SMILES)	chromatographic logD
Cn1nccc1C(=O)Nc1nc2cccnc2n1CC(C)(C)C [Compound 54, CC(Cn1c(NC(=O)c2n(C)ncc2)nc(c13)cccn3)(C)C]	4
CC(C)(C)Cn1c(NC(=O)c2ccccn2)nc2ccc(C#N)cc21 [Compound 40, CC(Cn1c(NC(=O)c2ccccn2)nc(c13)ccc(C#N)c3)(C)C]	4

System: not listed separately
Experiment: Mouse liver microsomal stability
Format: in vitro ADME
Details: CD1, mouse, liver microsomes, pH 7.4, S1 Data; read-out: MLM CLint
Experimental: The metabolic stability of the compounds was evaluated in human (pool of 200 donors, XenoTech) and mouse liver microsomes (CD1 mouse, GIBCO). Test compounds were prepared at a concentration of 0.5 μM and incubated with 0.25 mg/mL liver microsomes at pH 7.4 and 37°C. The reaction was started by addition of NADPH at […]. Samples were taken at 0, 5, 10, 15, 20 and 30 minutes. The reaction was stopped by the addition of acetonitrile:methanol (1:1) containing an internal standard (tolbutamide at 50 nM). Compounds were quantified by liquid chromatography triple quadrupole mass spectrometry (LC-MS/MS). Peak area ratios (analyte/internal standard) were converted to % remaining using the area ratio at time 0 as 100%. Half-life (t1/2 = ln(2)/k) in minutes and intrinsic clearance (Clint = k x 1000/(0.25)) in μL/min/mg were calculated using a non-linear regression from % remaining versus incubation time. From this plot, the slope (k) was determined. The analysis conditions were: analytical column (Gemini C18, […], Phenomenex), electrospray ionization source (ESI) in positive and negative mode, mobile phase A (water + 0.1% formic acid) and B (acetonitrile + 0.1% formic acid), flow rate of 0.7 mL/min.

Structure (SMILES)	microsomal CLint at 0.5 μM [µL/min/mg]
CC(C)(C)Cn1c(NC(=O)c2ccccn2)nc2ccc(C#N)cc21 [Compound 40, CC(Cn1c(NC(=O)c2ccccn2)nc(c13)ccc(C#N)c3)(C)C]	1030

Same assay, conditions: S1 Data

Structure (SMILES)	MLM CLint [µL/min/mg]
Cn1ccc(C(=O)Nc2nc3ccc(C#N)cc3n2CC(F)(F)F)n1 [Compound 35, O=C(c1nn(C)cc1)Nc2nc(ccc(C#N)c3)c3n2CC(F)(F)F]	73
Cn1nccc1C(=O)Nc1nc2cccnc2n1CC(C)(C)C [Compound 54, CC(Cn1c(NC(=O)c2n(C)ncc2)nc(c13)cccn3)(C)C]	222
CC(C)(C)Cn1c(NC(=O)c2cccnc2)nc2ccc(C#N)cc21 [Compound 41, O=C(Nc1n(CC(C)(C)C)c(c2n1)cc(C#N)cc2)c3cccnc3]	87

System: not listed separately
Experiment: Parallel artificial membrane permeability assay (PAMPA)
Format: in vitro ADME
Details: PAMPA, S1 Data; read-out: PAMPA Pe
Experimental: To determine the passive permeability of the compounds, a 96-well plate containing membranes pre-coated with lipids (Corning Gentest # 353015) was used. The solutions of the compounds were prepared by diluting the stock solutions (10mM) in phosphate buffered saline (PBS) pH 6.5 at a final concentration of 10μM. The solutions diluted in PBS pH 6.5 were then added to the donor portion of the plate (300 μl/well), while PBS pH 7.4 (200 μl/well) was added to the acceptor portion. The two portions of the plate were then coupled, and the system was incubated for 5 h at 37°C. At the end of the incubation, samples were collected from the donor and acceptor plates, and then added to plates containing quench solution (10% water and 90% methanol: acetonitrile (50:50) + 50 nM tolbutamide). The final concentrations of compounds in the donor, acceptor, and initial solution (T0) wells were analyzed using LC-MS/MS. The results were used to calculate an effective permeability (Pe) value. The PAMPA assay was performed in triplicate (n = 3).

Structure (SMILES)	Papp at 5 h, 10 μM [×10⁻⁶ cm/s]
Cn1ccc(C(=O)Nc2nc3ccc(C#N)cc3n2CC(F)(F)F)n1 [Compound 35, O=C(c1nn(C)cc1)Nc2nc(ccc(C#N)c3)c3n2CC(F)(F)F]	13.9
Cn1nccc1C(=O)Nc1nc2cccnc2n1CC(C)(C)C [Compound 54, CC(Cn1c(NC(=O)c2n(C)ncc2)nc(c13)cccn3)(C)C]	11.7
CC(C)(C)Cn1c(NC(=O)c2ccccn2)nc2ccc(C#N)cc21 [Compound 40, CC(Cn1c(NC(=O)c2ccccn2)nc(c13)ccc(C#N)c3)(C)C]	3.62
CC(C)(C)Cn1c(NC(=O)c2cccnc2)nc2ccc(C#N)cc21 [Compound 41, O=C(Nc1n(CC(C)(C)C)c(c2n1)cc(C#N)cc2)c3cccnc3]	18
